The record followed here is ChEMBL document CHEMBL3272136, “A new series of cardioselective adrenergic beta-receptor blocking compounds. 1-(2-Acyl-4-acylaminophenoxy)-3-isopropylaminopropan-2-ols” (1976).

Bounds are passed on as bounds.

Assay [1] concerns Felis catus. As to the kind of experiment: In vivo beta-1 adrenergic receptor blocking activity in iv dosed cat assessed as half dose required for desensitizing isoproterenol-induced tachycardia after 3.5 mins. Type of assay: functional.
Assay [2] deals with Felis catus. Put plainly: In vivo beta-2 adrenergic receptor blocking activity in iv dosed cat assessed as half dose required for desensitizing isoproterenol-induced diastolic hypotensive response after 3.5 mins. The assay is classed as functional.
For another assay, the system named is Canis familiaris. Put plainly: Antiarrhythmic activity in iv dosed dog assessed as dose required for reversal of ouabain-induced cardiac arrhythmia. Type of assay: functional, Canis lupus familiaris, Heart.
Assay [3] relates to Felis catus. As to the kind of experiment: Ratio of in vivo beta-2 adrenergic receptor blocking activity in iv dosed cat assessed as half dose required for desensitizing isoproterenol-induced diastolic hypotensive response to in vivo beta-1 adrenergic receptor blocking activity in iv dosed cat assessed as half dose required for desensitizing isoproterenol-induced tachycardia. Type of assay: functional.

As for `CCCCC(=O)Nc1ccc(OCC(O)CNC(C)C)c(C(C)=O)c1` (centres undefined), the Activity in the assay with Felis catus [1] worked out at 0.033 mg/kg; in the assay on Felis catus [2], 0.89 mg/kg; in the assay on Canis familiaris it was 4.8 mg/kg. Besides, in the assay with Felis catus [3], the Ratio worked out at 27.

Take `CCCCCC(=O)Nc1ccc(OCC(O)CNC(C)C)c(C(C)=O)c1` (centres undefined): the Activity in the assay on Felis catus [1] was 0.029 mg/kg; in the assay with Felis catus [2] it was 0.85 mg/kg; in the assay with Canis familiaris, 3.2 mg/kg. Also, in the assay with Felis catus [3], the Ratio is reported as 29.31.

With `CCCCCCC(=O)Nc1ccc(OCC(O)CNC(C)C)c(C(C)=O)c1` (centres undefined), the Activity worked out at 0.04 mg/kg in the assay with Felis catus [1], 0.5 mg/kg in the assay on Felis catus [2] and 2.7 mg/kg in the assay with Canis familiaris. Also, the Ratio in the assay with Felis catus [3] is on record as 12.5.

Turning to `CCC(=O)Nc1ccc(OCC(O)CNC(C)C)c(C(=O)CC)c1` (centres undefined), the Activity with Felis catus [1] stood at 0.026 mg/kg; in the assay with Felis catus [2] it was 0.41 mg/kg; with Canis familiaris, 6.4 mg/kg. Besides, the Ratio in the assay with Felis catus [3] was determined as 15.77.

With `CCCC(=O)Nc1ccc(OCC(O)CNC(C)C)c(C(=O)CC)c1` (centres undefined), the values for the Activity with Felis catus [1], with Felis catus [2] and with Canis familiaris were 0.079 mg/kg, 1.12 mg/kg and 6.1 mg/kg, respectively. Besides, in the assay with Felis catus [3], the Ratio is listed as 14.18.

As to `CCCC(=O)Nc1ccc(OCC(O)CNC(C)C)c(C(=O)CCC)c1` (centres undefined), the results for the Activity with Felis catus [1], in the assay with Felis catus [2] and with Canis familiaris were 0.23 mg/kg, 4.78 mg/kg and 3.5 mg/kg, respectively. In the assay on Felis catus [3], the Ratio is 20.78.

Turning to `CC(=O)c1cc(NC(=O)C(C)C)ccc1OCC(O)CNC(C)C` (centres undefined), the Activity in the assay with Felis catus [1] amounted to 0.1 mg/kg; in the assay with Felis catus [2], 1.85 mg/kg; with Canis familiaris it was 17.2 mg/kg. In addition, the Ratio in the assay on Felis catus [3] is on record as 18.5.

Take `CC(=O)c1cc(NC(=O)CC(C)C)ccc1OCC(O)CNC(C)C` (centres undefined): the Activity in the assay with Felis catus [1] stood at 0.11 mg/kg; in the assay with Felis catus [2], 2.1 mg/kg; in the assay with Canis familiaris it was 3.8 mg/kg. Further, the Ratio in the assay on Felis catus [3] is 19.09.

On to `CC(=O)c1cc(NC(=O)Cc2ccccc2)ccc1OCC(O)CNC(C)C` (centres undefined), for which the Activity in the assay on Felis catus [1] turned out to be 0.03 mg/kg; in the assay on Felis catus [2] it was 0.16 mg/kg; in the assay with Canis familiaris it was 12.6 mg/kg. Besides, the Ratio with Felis catus [3] is given as 5.33.

As to `CC(=O)c1cc(NC(=O)c2ccccc2)ccc1OCC(O)CNC(C)C` (centres undefined), the Activity in the assay on Felis catus [1] came to 0.54 mg/kg; with Felis catus [2], 1 mg/kg; in the assay on Canis familiaris, 5.8 mg/kg.

With `CCC(=O)Nc1ccc(OCC(O)CNC(C)C)c(C(C)=O)c1` (racemic), the Activity with Felis catus [1] came to 0.063 mg/kg; in the assay with Felis catus [2], 0.52 mg/kg; with Canis familiaris, 22.5 mg/kg. Also, the Ratio in the assay on Felis catus [3] turned out to be 8.25.

Turning to `CCCCCCCC(=O)Nc1ccc(OCC(O)CNC(C)C)c(C(C)=O)c1` (racemic), the Activity in the assay on Felis catus [1] came out at 0.05 mg/kg; in the assay on Felis catus [2], 0.692 mg/kg; with Canis familiaris, 3.9 mg/kg. In the assay on Felis catus [3], the Ratio is 13.84.

As for `CCCC(=O)Nc1ccc(OCC(O)CNC(C)C)c(C(C)=O)c1` (centres undefined) [ACEBUTOLOL], the results for the Activity in the assay with Felis catus [1], in the assay on Felis catus [2] and in the assay with Canis familiaris were 0.13 mg/kg, 2.6 mg/kg and 8.1 mg/kg, respectively. For the same molecule, in the assay on Felis catus [3], the Ratio is given as 20.

With `CC(=O)Nc1ccc(OCC(O)CNC(C)C)c(C(C)=O)c1` (centres undefined) [DIACETOLOL], the Activity in the assay on Felis catus [1] is 0.089 mg/kg; in the assay with Felis catus [2], 0.32 mg/kg; in the assay with Canis familiaris, more than 15 mg/kg. For the same molecule, in the assay on Felis catus [3], the Ratio was 3.59.

Take `CC(=O)Nc1ccc(OCC(O)CNC(C)C)cc1` (centres undefined) [PRACTOLOL]: the Activity with Felis catus [1] was 0.158 mg/kg; with Felis catus [2], 1.6 mg/kg; in the assay with Canis familiaris, more than 35 mg/kg. In the assay on Felis catus [3], the Ratio amounted to 10.13.
